Patent publication US9012460B2, “1-(2-phenoxymethylphenyl)piperazine compounds” (Theravance Biopharma R&D IP, LLC, priority 2010, dated 2015)

Legend:
hNET = target: T1, hNET (Homo sapiens, UniProt P23975); experiment: hNET membrane radioligand binding assay (Assay 1); conditions: 3H-nisoxetine, membranes from HEK-293 cells expressing hNET; read-out: NET pKi (converted)
T1 construct: expressed in transfected cells; host or cells: HEK-293
Description: (§1) Membrane radioligand binding assays were used to measure inhibition of labeled ligand (^3H-citalopram or ^3H-nisoxetine or ^3H-WIN35428) binding to membranes prepared from cells expressing the respective human recombinant transporter (hSERT or hNET or hDAT) in order to determine the pKi values of test compounds at the transporters.
(§2) Recombinant human embryonic kidney (HEK-293) derived cell lines stably transfected with hSERT or hNET, respectively, were grown in DMEM medium supplemented with 10% dialyzed FBS (for hSERT) or FBS (for hNET), 100 μg/ml penicillin, 100 μg/ml streptomycin, 2 mM L-glutamine and 250 μg/ml of the aminoglycoside antibiotic G418, in a 5% CO2 humidified incubator at 37° C. When cultures reached 80% confluence, the cells were washed thoroughly in PBS (without Ca^2+ and Mg^2+) and lifted with 5 mM EDTA in PBS. Cells were pelleted by centrifugation, resuspended in lysis buffer (10 mM Tris-HCl, pH7.5 containing 1 mM EDTA), homogenized, pelleted by centrifugation, then resuspended in 50 mM Tris-HCl, pH 7.5 and 10% sucrose at 4° C. Protein concentration of the membrane suspension was determined using a Bio-Rad Bradford Protein Assay kit. Membranes were snap frozen and stored at −80° C. Chinese hamster ovary membranes expressing hDAT (CHO-DAT) were purchased from PerkinElmer and stored at −80° C.
(§3) Binding assays were performed in a 96-well assay plate in a total volume of 200 μL assay buffer (50 mM Tris-HCl, 120 mM NaCl, 5 mM KCl, pH 7.4) with 0.5, 1, and 3 μg membrane protein, for SERT, NET and DAT, respectively.
(§4) Stock solutions (10 mM in DMSO) of test compound were prepared and serial dilutions made using Dilution Buffer (50 mM Tris-HCl, 120 mM NaCl, 5 mM KCl, pH 7.4, 0.1% BSA, 400 μM ascorbic acid).
(§5) Following a 60 minute incubation at 22° C. (or a period sufficient to reach equilibrium), the membranes were harvested by rapid filtration over a 96-well UniFilter GF/B plate, pretreated with 0.3% polyethyleneimine, and washed 6 times with 300 μl wash buffer (50 mM Tris-HCl, 0.9% NaCl, pH 7.5 at 4° C.). Plates were dried overnight at room temperature, ˜45 μl of MicroScint™-20 (Perkin Elmer) added and bound radioactivity quantitated via liquid scintillation spectroscopy. Inhibition curves and saturation isotherms were analyzed using GraphPad Prism Software package (GraphPad Software, Inc., San Diego, Calif.). IC50 values were generated from concentration response curves using the Sigmoidal Dose Response (variable slope) algorithm in Prism GraphPad. Kd and Bmax values for the radioligand were generated from saturation isotherms using the Saturation Binding Global Fit algorithm in Prism GraphPad. pKi (negative decadic logarithm of Ki) values for test compounds were calculated from the best-fit IC50 values, and the Kd value of the radioligand, using the Cheng-Prusoff equation (Cheng & Prusoff (1973) Biochem. Pharmacol. 22(23):3099-3108): Ki=IC50/(1+[L]/Kd), where [L]=concentration radioligand.

hSERT = target: T2, hSERT (Homo sapiens, UniProt P31645); experiment: hSERT membrane radioligand binding assay (Assay 1); conditions: 3H-citalopram, membranes from HEK-293 cells expressing hSERT; read-out: SERT pKi (converted)
T2 construct: expressed in transfected cells; host or cells: HEK-293
T2 sequence (P31645 whole entry): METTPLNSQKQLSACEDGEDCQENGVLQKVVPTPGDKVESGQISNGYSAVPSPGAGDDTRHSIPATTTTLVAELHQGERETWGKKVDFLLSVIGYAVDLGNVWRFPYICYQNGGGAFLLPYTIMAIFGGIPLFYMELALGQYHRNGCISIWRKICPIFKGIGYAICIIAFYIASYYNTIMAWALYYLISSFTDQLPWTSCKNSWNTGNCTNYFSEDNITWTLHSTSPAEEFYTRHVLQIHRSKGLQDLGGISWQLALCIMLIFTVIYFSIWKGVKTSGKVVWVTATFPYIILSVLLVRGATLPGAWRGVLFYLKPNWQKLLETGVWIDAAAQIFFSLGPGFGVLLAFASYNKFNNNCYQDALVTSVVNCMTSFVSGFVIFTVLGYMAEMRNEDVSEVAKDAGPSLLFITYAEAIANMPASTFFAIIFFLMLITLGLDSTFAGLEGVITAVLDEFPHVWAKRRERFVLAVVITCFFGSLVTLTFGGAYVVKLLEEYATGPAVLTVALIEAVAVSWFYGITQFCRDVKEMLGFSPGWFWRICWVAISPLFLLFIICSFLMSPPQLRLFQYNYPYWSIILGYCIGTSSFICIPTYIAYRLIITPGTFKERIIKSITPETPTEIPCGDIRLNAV
Description: as §1, §2, §3, §4, §5

T1 sequence (P23975 whole entry): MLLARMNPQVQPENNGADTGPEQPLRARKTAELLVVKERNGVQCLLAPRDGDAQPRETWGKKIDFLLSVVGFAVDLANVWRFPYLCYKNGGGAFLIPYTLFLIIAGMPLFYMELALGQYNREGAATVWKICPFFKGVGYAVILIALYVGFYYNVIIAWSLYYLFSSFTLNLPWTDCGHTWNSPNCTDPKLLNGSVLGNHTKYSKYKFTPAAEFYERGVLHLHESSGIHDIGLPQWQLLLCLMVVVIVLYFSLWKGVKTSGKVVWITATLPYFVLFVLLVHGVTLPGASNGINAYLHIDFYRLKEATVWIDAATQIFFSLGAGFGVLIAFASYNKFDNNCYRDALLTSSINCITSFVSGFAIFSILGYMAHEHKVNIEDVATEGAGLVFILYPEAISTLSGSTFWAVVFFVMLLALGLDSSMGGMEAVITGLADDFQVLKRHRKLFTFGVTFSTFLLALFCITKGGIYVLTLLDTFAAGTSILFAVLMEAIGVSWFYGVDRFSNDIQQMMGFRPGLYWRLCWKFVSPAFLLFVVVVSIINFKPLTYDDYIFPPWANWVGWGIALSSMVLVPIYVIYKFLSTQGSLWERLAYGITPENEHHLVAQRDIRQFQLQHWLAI

| SMILES | Ki (hNET) | Ki (hSERT) |
| --- | --- | --- |
| COc1ccc(Cl)cc1OCc1ccccc1N1CCNCC1 [Example 2-31] | ≤ 10000 nM | ≤ 100 nM |
| Cc1c(F)cccc1OCc1ccccc1N1CCNCC1 [Example 2-20] | ≤ 10000 nM | ≤ 100 nM |
| COc1ccccc1OCc1ccccc1N1CCNCC1 [Example 2-7] | ≤ 10000 nM | ≤ 100 nM |
| Clc1cccc(OCc2ccccc2N2CCNCC2)c1Cl [Example 2-19] | ≤ 10000 nM | ≤ 100 nM |
| Fc1ccccc1OCc1ccccc1N1CCNCC1 [Example 2-1] | ≤ 100 nM | ≤ 10000 nM |
| CC(C)c1cccc(C(C)C)c1OCc1ccccc1N1CCNCC1 [Example 2-38] | ≤ 10000 nM | ≤ 10000 nM |
| Clc1cc(Cl)cc(OCc2ccccc2N2CCNCC2)c1 [Example 2-37] | ≤ 10000 nM | ≤ 100 nM |
| Fc1cc(F)cc(OCc2ccccc2N2CCNCC2)c1 [Example 2-36] | ≤ 10000 nM | ≤ 100 nM |
| Fc1ccc(OCc2ccccc2N2CCNCC2)cc1F [Example 2-33] | ≤ 100 nM | ≤ 100 nM |
| Brc1cccc(OCc2ccccc2N2CCNCC2)c1 [Example 2-13] | ≤ 100 nM | ≤ 100 nM |
| c1ccc(Oc2ccccc2OCc2ccccc2N2CCNCC2)cc1 [Example 2-10] | ≤ 100 nM | ≤ 10000 nM |
| Clc1ccccc1OCc1ccccc1N1CCNCC1 [Example 2-2] | ≤ 10000 nM | ≤ 100 nM |
| Cc1ccc(F)cc1OCc1ccccc1N1CCNCC1 [Example 2-29] | ≤ 10000 nM | ≤ 100 nM |
| Fc1ccc(Cl)c(OCc2ccccc2N2CCNCC2)c1 [Example 2-27] | ≤ 10000 nM | ≤ 100 nM |
| Cc1ccccc1OCc1ccccc1N1CCNCC1 [Example 2-4] | ≤ 10000 nM | ≤ 100 nM |
| CC(C)c1ccccc1OCc1ccccc1N1CCNCC1 [Example 2-5] | ≤ 10000 nM | ≤ 100 nM |
| COc1cccc(OCc2ccccc2N2CCNCC2)c1 [Example 2-16] | ≤ 10000 nM | ≤ 100 nM |
| Cc1ccc(Cl)cc1OCc1ccccc1N1CCNCC1 [Example 2-30] | ≤ 100 nM | ≤ 100 nM |
| c1ccc(COc2ccccc2OCc2ccccc2N2CCNCC2)cc1 [Example 2-11] | ≤ 10000 nM | ≤ 10000 nM |
| Clc1cc(Cl)c(OCc2ccccc2N2CCNCC2)cc1Cl [Example 2-39] | ≤ 100 nM | ≤ 100 nM |
